These are literature values, as cited in patent US20060111369A1, “Synthesis, characterization and biological action of optically active isomers of floxacins” (priority 2004, published 2006).

Molecules are shown by their SMILES.

Data set [1] relates to gram-negative and gram-positive bacteria. Particulars: against both gram-negative and gram-positive bacteria.
The conditions of data set [2]: effects on the CNS.
Data set [3] deals with IKr potassium current channel (Homo sapiens, UniProt Q12809).
Sequence of IKr potassium current channel (Q12809 whole entry): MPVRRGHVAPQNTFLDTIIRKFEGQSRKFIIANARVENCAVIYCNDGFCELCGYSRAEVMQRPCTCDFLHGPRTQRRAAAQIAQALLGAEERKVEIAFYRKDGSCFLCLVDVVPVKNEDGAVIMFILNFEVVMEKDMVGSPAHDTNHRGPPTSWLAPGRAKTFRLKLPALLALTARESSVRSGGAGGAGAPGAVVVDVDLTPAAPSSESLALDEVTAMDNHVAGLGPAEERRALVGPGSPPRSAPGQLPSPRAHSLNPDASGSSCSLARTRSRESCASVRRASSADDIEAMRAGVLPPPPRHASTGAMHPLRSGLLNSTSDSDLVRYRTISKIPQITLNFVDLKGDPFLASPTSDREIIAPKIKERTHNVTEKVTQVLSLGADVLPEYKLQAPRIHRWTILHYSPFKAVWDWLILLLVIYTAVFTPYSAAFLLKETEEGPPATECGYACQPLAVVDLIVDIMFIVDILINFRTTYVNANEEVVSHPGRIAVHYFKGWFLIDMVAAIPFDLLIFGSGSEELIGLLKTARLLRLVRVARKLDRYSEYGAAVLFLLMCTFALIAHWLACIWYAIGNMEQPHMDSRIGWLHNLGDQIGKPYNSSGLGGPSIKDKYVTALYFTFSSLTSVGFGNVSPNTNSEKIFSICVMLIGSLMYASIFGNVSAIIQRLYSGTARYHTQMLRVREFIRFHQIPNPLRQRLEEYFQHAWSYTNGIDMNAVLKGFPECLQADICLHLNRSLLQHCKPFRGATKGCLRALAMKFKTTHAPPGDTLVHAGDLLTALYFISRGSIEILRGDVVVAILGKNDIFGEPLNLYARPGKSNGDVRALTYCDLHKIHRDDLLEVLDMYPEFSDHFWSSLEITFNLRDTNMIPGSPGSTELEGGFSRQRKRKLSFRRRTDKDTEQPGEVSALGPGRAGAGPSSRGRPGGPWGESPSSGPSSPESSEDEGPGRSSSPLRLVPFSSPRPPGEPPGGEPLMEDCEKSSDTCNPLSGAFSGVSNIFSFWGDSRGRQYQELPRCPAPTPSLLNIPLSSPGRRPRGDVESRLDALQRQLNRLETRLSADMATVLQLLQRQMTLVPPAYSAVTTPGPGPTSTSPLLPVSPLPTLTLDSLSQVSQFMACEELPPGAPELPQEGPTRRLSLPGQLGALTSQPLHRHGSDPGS
The conditions of data set [4]: according to the FDA.

For the compound `CC1COc2c(N3CCN(C)CC3)c(F)cc3c(=O)c(C(=O)O)cn1c23` (single isomer, unassigned; (-)) [(−)-Ofloxacin], the “activity relative to the racemate” value in data set [1] is 8-128 times.

As to `CC(N)Cc1ccccc1` (centres unmarked) [AP, amphetamine], the “activity of S-isomer relative to R-isomer” value in data set [2] is recorded as “approximately five”.

Regarding `CN[C@@H](C)Cc1ccccc1` [MAP, methamphetamine], in data set [2], the “activity of S-isomer relative to R-isomer” value was “approximately five”.

Turning to `COc1cc(N)c(Cl)cc1C(=O)NC1CCNCC1OC` (centres unmarked) [Norcisapride], for the setting “human, in vivo”, the “effect on QT interval (in words)” value was “does not”.

Regarding `COc1cc(N)c(Cl)cc1C(=O)NC1CCN(CCCOc2ccc(F)cc2)CC1OC` (centres unmarked) [cisapride], for the setting “human, in vivo”, the “effect on QT interval (in words)” value was “causes QT prolongation and arrhythmias”.

On to `COc1c(N2CCNC(C)C2)c(F)cc2c(=O)c(C(=O)O)cn(C3CC3)c12` (centres unmarked) [gatifloxacin], for which the “effect on QT interval (in words)” value (human, in vivo) is given as “prolong the QT interval”.

Turning to `Cc1c(F)c(N2CCNC(C)C2)cc2c1c(=O)c(C(=O)O)cn2C1CC1` (centres unmarked) [grepafloxacin], the “cardiac adverse events in clinical trials (in words)” value (clinical trials) is on record as “Heart-rhythm abnormalities were observed in some patients”. For the same compound, under “human, in vivo”, the “effect on QT interval (in words)” value is given as “prolong the QT interval”.

Turning to `C[C@H]1COc2c(N3CCN(C)CC3)c(F)cc3c(=O)c(C(=O)O)cn1c23` [levofloxacin], where the note is “human, in vivo”, the “effect on QT interval (in words)” value is “prolong the QT interval”.

As for `COc1c(N2C[C@@H]3CCCN[C@@H]3C2)c(F)cc2c(=O)c(C(=O)O)cn(C3CC3)c12` [moxifloxacin], the IKr blocker strength result in data set [3] is reported as “weak”. For the setting “human, in vivo”, the “mean QT prolongation” value was 6 ms and the “outliners (QT prolongation)” value is on record as 38.

In the case of `C[C@@H]1CN(c2c(F)c(N)c3c(=O)c(C(=O)O)cn(C4CC4)c3c2F)C[C@H](C)N1` [sparfloxacin], the “cardiac events per 10,000 prescriptions” value in data set [4] is listed as 145 per 10,000 prescriptions. The “effect on QT interval (in words)” value (human, in vivo) is “prolong the QT interval”.
